PMC11247499, “2,8-Disubstituted-1,5-naphthyridines as Dual Inhibitors of Plasmodium falciparum Phosphatidylinositol-4-kinase and Hemozoin Formation with In Vivo Efficacy” (Journal of Medicinal Chemistry, 2024)
Converted amounts (≈) assume the structure as drawn. “And” between values parts separate entries of the source, which are not always exact repeats. Identical values can stand only once. Like-named read-outs stand apart in the source and are kept apart here.

Legend:
Dd2_PI4K_CNV = assay: microbe, parasite or virus in culture; type: cell-based; conditions: Plasmodium falciparum, 72 h, read-out: Dd2_PI4K_CNV IC50
[1] = tested on: Chinese Hamster Ovary (CHO) cell line; assay: cells; type: cell-based; conditions: Cricetulus griseus, CHO, read-out: CHO IC50
Dd2 = assay: microbe, parasite or virus in culture; type: cell-based; conditions: Plasmodium falciparum, DD2, 72 h, read-out: Dd2 IC50 ± SD
[2] = tested on: P. falciparum NF54 strain; assay: Antiplasmodial activity, parasite lactate dehydrogenase assay, NF54; type: cell-based, Plasmodium falciparum; conditions: parasite lactate dehydrogenase assay over 72 h, read-out: Pf IC50 ± SD NF54
[3] = tested on: multidrug-resistant strain, K1; assay: Antiplasmodial activity, parasite lactate dehydrogenase assay, K1; type: cell-based, Plasmodium falciparum; conditions: Plasmodium falciparum, K1, 72 h, parasite lactate dehydrogenase assay over 72 h; read-out: Pf IC50 ± SD K1
LogD shake-flask = type: physicochemical; conditions: n-octanol/phosphate buffer (1:1), phosphate buffer (pH 7.4) / n-octanol
[4] = Solubility, miniaturized shake flask method
pKa of piperidine N = type: physicochemical
β-hematin (βH) formation = assay: NP-40 mediated cell-free β-hematin assay; conditions: read-out: β-hematin IC50
PvPI4K = PvPI4K (Plasmodium vivax, UniProt A5KB26); assay: biochemical
Chain of PvPI4K (A5KB26 entry or part of it): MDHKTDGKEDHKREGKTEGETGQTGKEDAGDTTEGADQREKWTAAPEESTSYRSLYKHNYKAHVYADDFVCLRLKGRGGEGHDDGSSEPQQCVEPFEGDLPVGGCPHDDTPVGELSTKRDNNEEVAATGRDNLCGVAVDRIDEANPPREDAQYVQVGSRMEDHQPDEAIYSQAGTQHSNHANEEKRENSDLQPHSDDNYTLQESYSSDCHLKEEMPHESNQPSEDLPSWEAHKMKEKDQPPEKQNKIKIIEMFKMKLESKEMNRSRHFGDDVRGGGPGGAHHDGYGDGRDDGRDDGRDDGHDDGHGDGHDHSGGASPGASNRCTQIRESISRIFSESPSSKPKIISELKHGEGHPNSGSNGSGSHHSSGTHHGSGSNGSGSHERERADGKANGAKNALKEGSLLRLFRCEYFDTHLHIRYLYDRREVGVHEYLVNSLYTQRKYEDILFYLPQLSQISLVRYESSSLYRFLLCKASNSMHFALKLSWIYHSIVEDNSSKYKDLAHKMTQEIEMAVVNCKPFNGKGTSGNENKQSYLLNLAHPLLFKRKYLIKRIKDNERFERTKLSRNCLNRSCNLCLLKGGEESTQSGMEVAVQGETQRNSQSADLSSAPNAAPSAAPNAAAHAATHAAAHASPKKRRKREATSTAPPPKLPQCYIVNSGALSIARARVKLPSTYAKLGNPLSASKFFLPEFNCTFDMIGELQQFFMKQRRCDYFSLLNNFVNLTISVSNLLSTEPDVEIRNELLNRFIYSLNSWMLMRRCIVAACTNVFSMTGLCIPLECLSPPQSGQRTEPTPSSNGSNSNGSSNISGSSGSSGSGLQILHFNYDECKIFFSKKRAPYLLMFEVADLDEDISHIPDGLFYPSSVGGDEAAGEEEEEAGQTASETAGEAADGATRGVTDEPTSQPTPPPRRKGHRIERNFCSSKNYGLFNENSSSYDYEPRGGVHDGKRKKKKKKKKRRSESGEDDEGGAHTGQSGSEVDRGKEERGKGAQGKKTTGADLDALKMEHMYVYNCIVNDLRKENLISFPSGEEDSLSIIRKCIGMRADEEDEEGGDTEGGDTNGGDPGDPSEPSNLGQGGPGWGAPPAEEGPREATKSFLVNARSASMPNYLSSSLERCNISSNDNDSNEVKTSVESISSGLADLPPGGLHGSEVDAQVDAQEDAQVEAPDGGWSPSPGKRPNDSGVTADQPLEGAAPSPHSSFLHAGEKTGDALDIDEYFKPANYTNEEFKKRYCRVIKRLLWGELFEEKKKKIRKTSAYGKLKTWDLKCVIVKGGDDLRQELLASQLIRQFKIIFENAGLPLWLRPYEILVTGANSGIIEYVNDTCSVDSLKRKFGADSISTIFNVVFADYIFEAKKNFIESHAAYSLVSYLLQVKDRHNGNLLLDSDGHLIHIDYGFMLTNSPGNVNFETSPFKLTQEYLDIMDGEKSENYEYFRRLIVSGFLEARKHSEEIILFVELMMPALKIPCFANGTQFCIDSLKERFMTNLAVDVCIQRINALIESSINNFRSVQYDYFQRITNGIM

hERG channels = target: T1, hERG channels (Homo sapiens, UniProt Q12809); assay: hERG inhibition, QPatch automated patch clamp assay; type: cell-based; conditions: CHO cells stably expressing the hERG channels
T1 construct: expressed in transfected cells; host or cells: CHO cells
T1 sequence (Q12809 whole entry): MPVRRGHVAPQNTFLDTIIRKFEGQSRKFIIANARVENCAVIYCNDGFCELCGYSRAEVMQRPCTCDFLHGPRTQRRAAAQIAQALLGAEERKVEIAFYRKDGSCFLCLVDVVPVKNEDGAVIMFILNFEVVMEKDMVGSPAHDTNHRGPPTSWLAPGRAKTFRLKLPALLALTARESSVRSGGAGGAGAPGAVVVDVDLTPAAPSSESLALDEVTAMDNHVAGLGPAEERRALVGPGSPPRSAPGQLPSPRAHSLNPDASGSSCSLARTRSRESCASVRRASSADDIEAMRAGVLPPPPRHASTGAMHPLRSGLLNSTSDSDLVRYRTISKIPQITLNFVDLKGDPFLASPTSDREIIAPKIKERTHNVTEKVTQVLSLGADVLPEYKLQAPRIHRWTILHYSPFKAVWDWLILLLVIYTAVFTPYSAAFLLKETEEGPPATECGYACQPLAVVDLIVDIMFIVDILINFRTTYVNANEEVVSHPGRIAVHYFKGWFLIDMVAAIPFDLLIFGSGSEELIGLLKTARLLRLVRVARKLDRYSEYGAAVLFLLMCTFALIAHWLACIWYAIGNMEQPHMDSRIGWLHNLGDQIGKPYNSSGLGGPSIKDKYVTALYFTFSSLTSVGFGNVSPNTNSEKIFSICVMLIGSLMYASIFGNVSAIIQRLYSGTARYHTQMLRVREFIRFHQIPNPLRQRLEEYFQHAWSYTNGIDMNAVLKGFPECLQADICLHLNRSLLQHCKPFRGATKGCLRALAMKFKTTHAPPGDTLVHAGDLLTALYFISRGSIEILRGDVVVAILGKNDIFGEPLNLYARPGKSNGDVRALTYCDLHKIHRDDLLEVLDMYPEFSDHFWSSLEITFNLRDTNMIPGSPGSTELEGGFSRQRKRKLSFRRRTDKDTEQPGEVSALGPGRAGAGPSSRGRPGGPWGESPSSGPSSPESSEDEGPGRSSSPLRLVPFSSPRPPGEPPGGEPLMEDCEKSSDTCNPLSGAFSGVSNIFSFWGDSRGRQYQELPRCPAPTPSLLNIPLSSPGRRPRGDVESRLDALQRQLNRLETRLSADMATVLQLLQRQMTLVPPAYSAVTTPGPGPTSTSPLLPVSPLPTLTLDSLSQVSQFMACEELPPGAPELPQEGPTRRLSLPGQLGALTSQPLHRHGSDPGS

[5] = tested on: P. falciparum male gametes; assay: microbe, parasite or virus in culture; conditions: Plasmodium falciparum, 48 h, read-out: inhibition of exflagellation
cytochrome P450 3A4 = cytochrome P450 3A4 (Homo sapiens, UniProt P08684); assay: Cytochrome P450 inhibition, 3A4; type: in vitro ADME
Chain of cytochrome P450 3A4 (P08684 whole entry): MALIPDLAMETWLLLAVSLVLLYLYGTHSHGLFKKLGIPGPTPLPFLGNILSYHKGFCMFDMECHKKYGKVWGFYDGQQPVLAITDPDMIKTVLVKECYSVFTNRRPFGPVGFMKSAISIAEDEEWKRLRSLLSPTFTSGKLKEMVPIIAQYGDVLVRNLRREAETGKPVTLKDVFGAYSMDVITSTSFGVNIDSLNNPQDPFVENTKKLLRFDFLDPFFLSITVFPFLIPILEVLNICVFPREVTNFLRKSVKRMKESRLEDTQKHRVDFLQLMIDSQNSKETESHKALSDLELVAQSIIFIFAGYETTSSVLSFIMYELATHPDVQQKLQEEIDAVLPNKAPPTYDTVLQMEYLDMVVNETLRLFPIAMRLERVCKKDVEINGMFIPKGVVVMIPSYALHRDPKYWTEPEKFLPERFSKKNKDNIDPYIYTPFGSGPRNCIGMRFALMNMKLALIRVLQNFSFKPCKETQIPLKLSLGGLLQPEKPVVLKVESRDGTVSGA

[6] = tested on: P. falciparum PI4K conditional knockdown line; assay: microbe, parasite or virus in culture; type: cell-based, Plasmodium falciparum; conditions: for IC50: Plasmodium falciparum
[7] = Plasma protein binding, mouse; type: in vitro ADME; conditions: read-out: PPB fu, mouse
cytochrome P450 2D6 = cytochrome P450 2D6 (Homo sapiens, UniProt P10635); assay: Cytochrome P450 inhibition, 2D6; type: in vitro ADME
Text: Table 10 In Vitro and In Vivo Pharmacokinetic Parameters ^a | column: 14

[8] = In vitro microsomal stability, human; type: in vitro ADME; conditions: pooled human liver microsomes, pH 7.4, read-out: microsomal CLint, app human
cytochrome P450 2C19 = cytochrome P450 2C19 (Homo sapiens, UniProt P33261); assay: Cytochrome P450 inhibition, 2C19; type: in vitro ADME
[9] = Mouse pharmacokinetic studies; conditions: male, BalbC; for Vd at 24 h / half-life at 24 h / bioavailability at 24 h: in vivo; for Vd at 24 h / half-life at 24 h / in vivo mouse CLb: iv, 2 mg/kg; for bioavailability at 24 h: po
P. falciparum = assay: In vitro resistance selection under sustained drug pressure; type: cell-based, Plasmodium falciparum; conditions: sustained drug pressure at 3 × IC90 for 60 days in vitro (data not shown)
cytochrome P450 2C9 = cytochrome P450 2C9 (Homo sapiens, UniProt P11712); assay: Cytochrome P450 inhibition, 2C9; type: in vitro ADME
Chain of cytochrome P450 2C9 (P11712 whole entry): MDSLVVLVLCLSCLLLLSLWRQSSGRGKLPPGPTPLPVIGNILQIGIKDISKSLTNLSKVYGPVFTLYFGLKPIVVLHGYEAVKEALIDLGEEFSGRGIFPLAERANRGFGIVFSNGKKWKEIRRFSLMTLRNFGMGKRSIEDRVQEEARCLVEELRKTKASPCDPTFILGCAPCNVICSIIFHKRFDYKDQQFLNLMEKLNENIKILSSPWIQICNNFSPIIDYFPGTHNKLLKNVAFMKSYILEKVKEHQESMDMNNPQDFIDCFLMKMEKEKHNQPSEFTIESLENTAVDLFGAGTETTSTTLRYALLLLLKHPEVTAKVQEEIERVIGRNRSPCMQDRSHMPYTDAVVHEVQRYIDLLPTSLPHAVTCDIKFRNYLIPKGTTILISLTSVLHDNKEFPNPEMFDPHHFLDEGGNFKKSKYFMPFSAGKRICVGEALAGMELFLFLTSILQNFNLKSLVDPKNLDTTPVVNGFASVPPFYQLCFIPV

[10] = In vitro microsomal stability, rat; type: in vitro ADME; conditions: rat liver microsomes, pH 7.4, read-out: microsomal CLint, app rat
HuPI3Kα = HuPI3Kα (Homo sapiens, UniProt P42336); assay: Human kinase inhibition, HuPI3Kα; conditions: read-out: HuPI3Kα, IC50
[11] = In vitro microsomal stability, mouse; type: in vitro ADME; conditions: mouse liver microsomes, pH 7.4, read-out: microsomal CLint, app mouse
HuMINK1 = HuMINK1 (Homo sapiens, UniProt Q8N4C8); assay: Human kinase inhibition, HuMINK1; conditions: read-out: HuMINK1, IC50
Chain of HuMINK1 (Q8N4C8 whole entry): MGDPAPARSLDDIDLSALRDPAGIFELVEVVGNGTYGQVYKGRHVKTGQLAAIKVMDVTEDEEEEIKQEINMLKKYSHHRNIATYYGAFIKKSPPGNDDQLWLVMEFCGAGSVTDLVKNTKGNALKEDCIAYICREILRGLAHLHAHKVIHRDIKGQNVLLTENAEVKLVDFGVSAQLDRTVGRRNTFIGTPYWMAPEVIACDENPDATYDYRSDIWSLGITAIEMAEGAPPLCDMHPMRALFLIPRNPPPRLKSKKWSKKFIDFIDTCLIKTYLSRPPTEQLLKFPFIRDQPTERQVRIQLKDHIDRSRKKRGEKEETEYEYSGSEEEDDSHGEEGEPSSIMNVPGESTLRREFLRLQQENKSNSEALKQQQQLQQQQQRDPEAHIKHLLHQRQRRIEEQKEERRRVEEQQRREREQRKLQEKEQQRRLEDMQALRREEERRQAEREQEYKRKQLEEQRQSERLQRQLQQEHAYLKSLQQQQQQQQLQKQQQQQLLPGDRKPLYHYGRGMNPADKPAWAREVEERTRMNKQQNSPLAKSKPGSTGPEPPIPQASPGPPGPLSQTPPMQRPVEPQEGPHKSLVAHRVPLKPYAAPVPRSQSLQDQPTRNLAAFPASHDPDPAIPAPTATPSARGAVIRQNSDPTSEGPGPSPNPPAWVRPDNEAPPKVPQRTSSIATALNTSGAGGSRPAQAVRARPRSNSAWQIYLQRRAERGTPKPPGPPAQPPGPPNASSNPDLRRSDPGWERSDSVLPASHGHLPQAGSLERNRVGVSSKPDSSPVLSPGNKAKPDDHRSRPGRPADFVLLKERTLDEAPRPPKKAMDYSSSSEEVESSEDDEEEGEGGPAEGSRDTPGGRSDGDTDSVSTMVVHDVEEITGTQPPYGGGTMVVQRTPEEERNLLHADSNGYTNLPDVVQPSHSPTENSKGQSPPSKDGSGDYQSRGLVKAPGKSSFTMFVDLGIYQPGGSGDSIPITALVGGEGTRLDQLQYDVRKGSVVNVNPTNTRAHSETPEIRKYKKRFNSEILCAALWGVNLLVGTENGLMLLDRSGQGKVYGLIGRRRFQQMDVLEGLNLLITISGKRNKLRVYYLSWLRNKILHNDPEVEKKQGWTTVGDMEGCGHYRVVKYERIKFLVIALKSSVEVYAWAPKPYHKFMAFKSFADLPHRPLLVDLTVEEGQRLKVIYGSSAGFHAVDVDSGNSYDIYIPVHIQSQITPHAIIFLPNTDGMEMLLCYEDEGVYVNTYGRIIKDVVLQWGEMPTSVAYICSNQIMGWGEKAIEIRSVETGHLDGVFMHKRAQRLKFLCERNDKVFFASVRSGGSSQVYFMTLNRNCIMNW

HuMAP4K4 = HuMAP4K4 (Homo sapiens, UniProt O95819); assay: Human kinase inhibition, HuMAP4K4; conditions: read-out: HuMAP4K4, IC50
HuPI4Kβ = HuPI4Kβ (Homo sapiens, UniProt Q9UBF8); assay: Human kinase inhibition, HuPI4Kβ; conditions: read-out: HuPI4Kβ, IC50
[12] = Plasma protein binding, human; type: in vitro ADME; conditions: pooled human plasma, read-out: PPB fu, human
[13] = Plasmodium falciparum, NF54, 72 h
[14] = cell-free NP-40 detergent-mediated assay, n = 2
[15] = purified recombinant PvPI4K, 10 μM ATP, ADP-Glo, mean of N ≥ 2, read-out: PvPI4K IC50 ± SD

O[C@H]1CNCC[C@H]1Nc1ccnc2ccc(-c3ccc(C(F)(F)F)nc3)nc12 (relative stereo) [Compound 27, rac-cis-4-[[6-[6-(Trifluoromethyl)pyridin-3-yl]-1,5-naphthyridin-4-yl]amino]piperidin-3-ol]
IC50 (Dd2_PI4K_CNV): 0.381 ± 0.017 µM
IC50 ([1]; MTT assay over 48h): 33 µM
IC50 (Dd2): 0.437 ± 0.071 µM
IC50 [2, 13]: 0.14 µM
IC50 [2]: 0.13 ± 0.024 µM
IC50 [3]: 0.334 ± 0.147 µM
logD at 3 h (LogD shake-flask): 1.02
solubility at 20 h ([4]; aqueous solution): 200 µM (≈ 77.9 µg/mL)
pKa (pKa of piperidine N): 8.99
IC50 (β-hematin (βH) formation; [14]): 140 ± 7 µM
IC50 (PvPI4K; [15]): 0.37 ± 0.175 µM
IC50 (hERG channels): 24.5 µM

NS(=O)(=O)c1cccc(-c2ccc3nccc(-c4ccnc(C(F)(F)F)c4)c3n2)c1 [Compound 1]
IC50 ([1]; 48 h): 6 µM
IC50 (β-hematin (βH) formation): > 500 µM
inhibition at 2 µM [5]: 60%

N[C@H]1CCN(c2ccnc3ccc(-c4ccc(C(F)(F)F)nc4)nc23)C1 [Compound 14, (3S)-1-[6-[6-(Trifluoromethyl)pyridin-3-yl]-1,5-naphthyridin-4-yl]pyrrolidin-3-amine]
IC50 (Dd2_PI4K_CNV): 0.041 ± 0.01 µM
IC50 ([1]; MTT assay over 48h): 12 µM
IC50 (Dd2): 0.046 ± 0.02 µM
IC50 [2, 13]: 0.031 ± 0.003 µM
IC50 [3]: 0.087 ± 0.03 µM
solubility at 20 h ([4]; PBS, pH 6.5): 200 µM (≈ 71.9 µg/mL)
solubility at 20 h ([4]; aqueous solution): 200 µM (≈ 71.9 µg/mL)
IC50 (cytochrome P450 3A4): > 20 µM
IC50 ([6]; 72 h, read-out: ABS IC50 for PfPI4K cKD, N=1, +aTc, experiment N=1, +aTc (500 nM, control conditions), 72 hours): 0.023 µM
IC50 ([6]; 72 h, read-out: ABS IC50 for PfPI4K cKD, N=1, no aTc, experiment N=1, no aTc (PI4K knockdown), 72 hours): 0.025 µM
IC50 ([6]; 72 h, read-out: ABS IC50 for PfPI4K cKD, N=2, +aTc, experiment N=2, +aTc (500 nM, control conditions), 72 hours): 0.037 µM
IC50 ([6]; 72 h, read-out: ABS IC50 for PfPI4K cKD, N=2, no aTc, experiment N=2, no aTc (PI4K knockdown), 72 hours): 0.038 µM
IC50 ([6]; 72 h, read-out: ABS IC50 for PfPI4K cKD, N=3, +aTc, experiment N=3, +aTc (500 nM, control conditions), 72 hours): 0.021 µM
IC50 ([6]; 72 h, read-out: ABS IC50 for PfPI4K cKD, N=3, no aTc, experiment N=3, no aTc (PI4K knockdown), 72 hours): 0.02 µM
IC50 ([6]; read-out: ABS IC50 for PfPI4K cKD, Mean + SD, +aTc, mean of N=3, +aTc (control conditions)): 0.027 ± 0.009 µM
IC50 ([6]; read-out: ABS IC50 for PfPI4K cKD, Mean + SD, no aTc, mean of N=3, no aTc (PI4K knockdown)): 0.028 ± 0.009 µM
ABS IC50 for PfPI4K cKD, N=1, fold shift ([6]; experiment N=1, +aTc vs no aTc): 0.90 fold
ABS IC50 for PfPI4K cKD, N=2, fold shift ([6]; experiment N=2, +aTc vs no aTc): 0.98 fold
ABS IC50 for PfPI4K cKD, N=3, fold shift ([6]; experiment N=3, +aTc vs no aTc): 1.04 fold
ABS IC50 for PfPI4K cKD, mean fold shift (fold decrease in IC50 on knockdown) ([6]; mean, +aTc vs no aTc): 0.97 fold
fraction unbound at 5 h, 5 µM [7]: 0.08
IC50 (cytochrome P450 2D6): > 20 µM
CLint scaled at 1 µM [8]: < 13 mL/min/kg
IC50 (cytochrome P450 2C19): 18 µM
in vivo mouse CLu [9]: 135 mL/min/kg
Vd at 24 h [9]: 4.4 L/kg
half-life at 24 h [9]: 6.3 h
bioavailability at 24 h [9]: 27%
in vivo mouse CLb [9]: 10.80 mL/min/kg
Attempts to raise mutants (P. falciparum): not successful
IC50 (β-hematin (βH) formation; [14]): 33 µM and < 60 µM
IC50 (cytochrome P450 2C9): > 20 µM
CLint scaled at 1 µM [10]: < 21 mL/min/kg
IC50 (HuPI3Kα): 5.2 µM
CLint scaled at 1 µM [11]: < 46 mL/min/kg
IC50 (HuMINK1): > 10 µM
IC50 (PvPI4K; [15]): 1.21 ± 0.22 µM
IC50 (HuMAP4K4): > 10 µM
IC50 (HuPI4Kβ): > 10 µM

CN1CCC(Nc2ccnc3ccc(-c4ccc(C(F)(F)F)nc4)nc23)CC1 [Compound 21, N-(1-Methylpiperidin-4-yl)-6-[6-(trifluoromethyl)pyridin-3-yl]-1,5-naphthyridin-4-amine]
IC50 ([1]; MTT assay over 48h): > 50 µM
IC50 [2, 13]: 0.052 ± 0.014 µM
IC50 [3]: 0.162 ± 0.004 µM
logD at 3 h (LogD shake-flask): 1.86
solubility at 20 h ([4]; PBS, pH 6.5): 160 µM (≈ 62 µg/mL)
solubility at 20 h ([4]; aqueous solution): 160 µM (≈ 62 µg/mL)
fraction unbound at 5 h, 5 µM [7]: 0.3
fraction unbound at 5 h, 5 µM [12]: 0.5
CLint scaled at 1 µM [8]: < 10 mL/min/kg
in vivo mouse CLu [9]: 22 mL/min/kg
Vd at 24 h [9]: 12 L/kg
half-life at 24 h [9]: 16 h
bioavailability at 24 h [9]: 99%
in vivo mouse CLb [9]: 9.90 mL/min/kg
IC50 (β-hematin (βH) formation; [14]): 35 µM and < 60 µM
CLint scaled at 1 µM [10]: < 21 mL/min/kg
CLint scaled at 1 µM [11]: < 46 mL/min/kg
IC50 (PvPI4K; [15]): 0.175 ± 0.082 µM

FC(F)CN1CCC(Nc2ccnc3ccc(-c4ccc(C(F)(F)F)nc4)nc23)CC1 [Compound 23, N-[1-(2,2-Difluoroethyl)piperidin-4-yl]-6-[6-(trifluoromethyl)pyridin-3-yl]-1,5-naphthyridin-4-amine]
IC50 [2, 13]: 0.88 ± 0.034 µM
IC50 (β-hematin (βH) formation; [14]): 30 µM and < 60 µM
IC50 (PvPI4K): 0.053 ± 0.028 µM
solubility (physchem): 20 µM (≈ 8.75 µg/mL)
